Values quoted from earlier work, collected in patent US10633811B1, “Apparatus and method for collecting and disposing of pet waste” (COSMIC PET LLC, priority 2017, dated 2020).

Experiments:
[1] = system: Pseudomonas aeruginosa PAO1; settings: CAMHB, 0.1% Tween 80
Campylobacter jejuni = settings: strain not given
C. jejuni C338 = settings: Table 3, single compounds; Nutrient Broth No. 2, 37° C., Tween 80 0.002% vol/vol
C. jejuni 3393 = settings: Table 3, single compounds; Nutrient Broth No. 2, 37° C., Tween 80 0.002% vol/vol
C. coli ATCC 43484 = settings: Table 3, single compounds; Nutrient Broth No. 2, 37° C., Tween 80 0.002% vol/vol
E. coli O26 = settings: Table 3, single compounds; Nutrient Broth No. 2, 37° C., Tween 80 0.002% vol/vol
[2] = system: S. typhimurium ATCC 14028; settings: Table 3, single compounds; Nutrient Broth No. 2, 37° C., Tween 80 0.002% vol/vol
E. faecalis ATCC 29212 = settings: Table 3, single compounds; Nutrient Broth No. 2, 37° C., Tween 80 0.002% vol/vol
Campylobacter spp. = settings: against Campylobacter spp., E. coli, S. typhimurium, and E. faecalis

## O=CC=Cc1ccccc1 [Cinnamaldehyde]
[1]
  MIC: 0.1%

## Cc1ccc(C(C)C)cc1O [Carvacrol]
C.jejuni 108
  C.jejuni 108 MIC: 300 to 400 µM
C.jejuni 81116
  C.jejuni 81116 MIC: 300 to 400 µM
Campylobacter jejuni
  concentration that inhibits Campylobacter jejuni: 0.3 to 0.4 mM

## CC1=CCC(O)(C(C)C)CC1 (stereo not shown) [Terpinen-4-ol]
C. jejuni C338
  C. jejuni C338 (MIC %): 0.06%
C. jejuni 3393
  C. jejuni 3393 (MIC %): 0.06%
C. coli ATCC 43484
  C. coli ATCC 43484 (MIC %): 0.06%
E. coli O26
  E. coli O26 (MIC %): 0.06%
[2]
  S. typhimurium ATCC 14028 (MIC %): 0.06%
E. faecalis ATCC 29212
  E. faecalis ATCC 29212 (MIC %): 0.5%
Campylobacter spp.
  antimicrobial activity among single compounds: highest activity

## C=CC(C)(O)CCC=C(C)CCC=C(C)C (stereo not shown) [Nerolidol]
C. jejuni C338
  C. jejuni C338 (MIC %): 0.5%
C. jejuni 3393
  C. jejuni 3393 (MIC %): 0.5%
C. coli ATCC 43484
  C. coli ATCC 43484 (MIC %): 1%
E. coli O26
  E. coli O26 (MIC %): >2%
[2]
  S. typhimurium ATCC 14028 (MIC %): >2%
E. faecalis ATCC 29212
  E. faecalis ATCC 29212 (MIC %): >2%

## C=CCc1ccc(O)c(OC)c1 [Eugenol]
[1]
  MIC: >5%

## CC12CCC(CC1)C(C)(C)O2 [Cineole]
C. jejuni C338
  C. jejuni C338 (MIC %): 0.25%
C. jejuni 3393
  C. jejuni 3393 (MIC %): 0.25%
C. coli ATCC 43484
  C. coli ATCC 43484 (MIC %): 0.25%
E. coli O26
  E. coli O26 (MIC %): 1%
[2]
  S. typhimurium ATCC 14028 (MIC %): 2%
E. faecalis ATCC 29212
  E. faecalis ATCC 29212 (MIC %): >2%

## α-Bisabolol
C. jejuni C338
  C. jejuni C338 (MIC %): 0.5%
C. jejuni 3393
  C. jejuni 3393 (MIC %): 0.125%
C. coli ATCC 43484
  C. coli ATCC 43484 (MIC %): 0.5%
E. coli O26
  E. coli O26 (MIC %): 2%
[2]
  S. typhimurium ATCC 14028 (MIC %): >2%
E. faecalis ATCC 29212
  E. faecalis ATCC 29212 (MIC %): >2%

## C=CC(C)(O)CCC=C(C)C (stereo not shown) [Linalool]
[1]
  MIC: >5%

## CC1=CC=C(C(C)C)CC1 [α-Terpinene]
C. jejuni C338
  C. jejuni C338 (MIC %): 0.25%
C. jejuni 3393
  C. jejuni 3393 (MIC %): 0.125%
C. coli ATCC 43484
  C. coli ATCC 43484 (MIC %): 0.125%
E. coli O26
  E. coli O26 (MIC %): >2%
[2]
  S. typhimurium ATCC 14028 (MIC %): >2%
E. faecalis ATCC 29212
  E. faecalis ATCC 29212 (MIC %): >2%
